Experiments:
[1] = test system: scleroderma lung fibroblasts (SLF); assay: CSD peptide treatment of SLF, Western blotting; assay type: cell-based, human
Text: Fibroblasts were derived from lung tissue obtained at autopsy from scleroderma patients (SLF) and from age-, race-, and sex-matched normal subjects (NLF) and cultured as previously described (44). Cells were used in passages 2-4. The group of scleroderma patients fulfilled the criteria of American college of Rheumatology for the diagnosis of scleroderma with lung involvement. Normal human lung tissue was obtained from the Brain and Tissue Bank for Developmental Disorders (Baltimore, Md.) or from the National Disease Research Interchange (Philadelphia, Pa.). Scleroderma lung tissue was obtained from the Division of Pathology and Laboratory Medicine at the Medical University of South Carolina (MUSC). The study was approved by the Institutional Review Board for Human Subject Research at the MUSC.
The CSD peptide (amino acids 82-101 of caveolin-1; […]) (SEQ ID NO: 1) and a scrambled control peptide ([…]) (SEQ ID NO: 2) were synthesized as fusion peptides to the C terminus of the Antennapedia internalization sequence (RQIKUVFQNRRMKWKK) (SEQ ID NO: 3). Before each experiment, desiccated peptides were dissolved at a final 1 mM in 10% DMSO as described by Bernatchez et al. (4). Cells in 6-well plates at 70-80% confluence were then incubated with 1 ml serum-free DMEM containing […] CSD or scrambled peptide. After 6 h, the culture medium and cell layer were harvested.
Cell layers were harvested in boiling SDS-PAGE sample buffer; medium was dialyzed, lyophilized, and resuspended in sample buffer. Aliquots of culture medium or of cell layer representing material derived from the same number of cells was probed using the following primary antibodies and appropriate secondary antibodies. Culture medium: goat anti-human collagen I (AB758P) and rabbit anti-human tenascin-C (AB19011) from Chemicon International (Temecula, Calif.). Cell layer: rabbit antibodies against PKCα (sc-208), PKCε (sc-214), activated JNK (sc-12882), activated Akt Thr 308 (sc-166646R) and caveolin-1 (sc-894) from Santa Cruz Biotechnology (Santa Cruz, Calif.); rabbit antibodies against ERK 1/2 (9102), activated ERK 1/2 (9106), JNK (9252), Akt (9272), MEK 1/2 (9122), and activated MEK 1/2 (9121) from Cell Signaling (Beverly, Mass.); mouse monoclonal anti-ASMA (clone 1A4) from Sigma (Saint Louis, Mo.), and mouse monoclonal anti-actin (MAB1501) from Chemicon International (Temecula, Calif.).
Immunoreactive bands were quantified by densitometry using the Image 1.32J NIH software. For statistical analysis the raw densitometric data were processed and analyzed using the Prism 3.0 (GraphPad Software Inc.) statistical analysis software.

[2] = test system: bleomycin-induced lung fibrosis; assay: Bleomycin-induced lung fibrosis and CSD treatment in mice; assay type: in vivo, mouse
Method: Extract from each mouse was analyzed by Western blotting (25 μg total protein per lane) using antibodies against ph-ERK, caveolin-1, PKCε, ASMA, PKCα, tenascin-C, ph-Akt, ph-JNK, and actin (loading control); and the results quantified densitometrically (averages±s.e.m. are shown). The level of each protein in “Saline” was set to 100 arbitrary units. Actin levels (loading control) were similar in all four samples (not shown). Statistical significance: ns, not significant; **p<0.01; ***p<0.001.
Masson's Trichrome-stained sections from the experiments described in FIG. 11 were used to evaluate the effects of bleomycin and the CSD peptide on collagen expression (blue product) and lung tissue morphology. […] To generate the table, Masson's Trichrome-stained slides of lung tissue from all 41 mice sacrificed 14 days after saline or bleomycin treatment were scored blind in terms of the portion of the lung with abnormal morphology using an arbitrary scale: Normal morphology as in A=0, slightly altered morphology as in B=1, moderately altered morphology as in C=2, and severely altered morphology as in D 3. Bar in C=0.1 mm.
This procedure was approved by the MUSC Institutional Animal Care & Use Committee. Ten-week old, male CD 1 mice (Charles River, Boston, Mass.) were anesthetized and received bleomycin (Calbiochem, La Jolla, Calif.) or saline solution by intratracheal instillation as previously described (44). Two approaches were used for CSD peptide treatment. In both approaches the peptide treatment was initiated one day prior to bleomycin. In the first approach, Alzet pumps delivering 0.5 μl/h for 14 days of a 1 mM solution of CSD peptide were implanted into twelve mice; twelve additional mice received no pump. In the second approach twelve mice received daily intraperitoneal injections of 100 μl of a 0.15 mM solution of the CSD peptide for 14 days; twelve additional mice received the scrambled peptide. One day later, six mice from each group of twelve received intratracheal bleomycin, six received saline. After 14 days, lungs were harvested. Half of each set of lungs was fixed, sectioned, and stained with Masson's Trichrome Stain. The other half of each set of lungs was dissolved in SDS-PAGE sample buffer for Western blotting experiments. Because very similar results were obtained using the two approaches to CSD peptide treatment, results were pooled.
Student's t test was used to analyze protein expression levels in lung tissue samples obtained from normal individuals and from scleroderma patients. Protein expression levels for samples obtained from in vitro experiments and from mice were analyzed by two-way analysis of variance (ANOVA) followed by the Bonferroni post-test. For experiments in which the degree of tissue damage in mice treated with bleomycin was scored on an arbitrary scale, data was analyzed using the Mann-Whitney rank sum test. In all tests, results were regarded as statistically significant if p<0.05.

[3] = CSD peptide vs scrambled peptide
[4] = mouse lung tissue, Western blotting, 14 days

Sequence: DGIWKASFTTFTVTKYWFYR [CSD peptide]
- time in which inhibition of collagen expression occurs ([1]; 5 μM CSD): less than 5 hours
- decrease of MEK/ERK activation ([1]; 5 μM CSD peptide vs scrambled peptide): about 50%
- inhibition of collagen expression ([1]; 5 μM CSD peptide vs scrambled peptide, collagen in culture medium, Western blotting): > 95%
- activation of Akt ([1]; CSD peptide vs Scr peptide): inhibited
- activation of JNK ([1]; CSD peptide vs Scr peptide): inhibited
- expression of total MEK, total ERK, total Akt, or total JNK ([1]; CSD peptide vs Scr peptide): did not affect
- ASMA expression [1, 3]: inhibited
- expression of caveolin-1 itself, PKCα, or PKCε [1, 3]: did not affect
- tenascin-C expression [1, 3]: inhibited
- median weight loss ([2]; bleomycin-treated mice receiving peptide (30% in untreated mice)): 14 % of original weight
- tissue damage and collagen deposition ([2]; bleomycin-treated mice, CSD peptide via Alzet pumps or intraperitoneal injection, 14 days, Masson's Trichrome): slight to moderate
- survival and lung tissue morphology ([2]; bleomycin-treated mice, systemic treatment with the peptide): striking positive effect
- expression of caveolin-1 itself ([2]; lung tissue of bleomycin-treated mice, Western blotting): did not affect
- inhibition of bleomycin-induced decrease in PKCα [2, 4]: about 50%
- inhibition of bleomycin-induced decrease in PKCε [2, 4]: at least 75%
- inhibition of bleomycin-induced increase in ASMA [2, 4]: at least 75%
- inhibition of bleomycin-induced increase in ph-Akt [2, 4]: at least 75%
- inhibition of bleomycin-induced increase in ph-ERK [2, 4]: at least 75%
- inhibition of bleomycin-induced increase in ph-JNK [2, 4]: at least 75%
- inhibition of bleomycin-induced increase in tenascin-C [2, 4]: at least 75%

From US8058227B2, “Method of treating fibrosis in a subject in need thereof comprising administering a composition comprising a CSD” (Medical University of South Carolina, priority 2006, dated 2011)
